Experimental data reported in US20250302799A1, “PHARMACEUTICAL COMPOSITION CONTAINING FRAXETIN FOR PREVENTION OR TREATMENT OF ENDOMETRIOSIS” (Research & Business Foundation Sungkyunkwan University, priority 2024, published 2025).

Tests used:
Assay type in all cases: cell-based, human
[1] = test system: End1/E6E7 cells; assay: Cell cycle analysis by flow cytometry (PI); settings: End1/E6E7, 48 hours
Protocol: (§1) The inventors performed flow cytometry to examine the changes in the cell cycle of endometrial cells induced by fraxetin.
(§2) In brief, 5×10^3 cells of VK2/E6E7, End1/E6E7, and T-HESC were treated with fraxetin in a dose-dependent manner (0 μM, 5 μM, 10 μM, 20 μM, 50 μM, 100 μM) and incubated for 48 hours at 37° C. in a 5% CO2 incubator.
(§3) Afterward, cells were detached from the culture plates using trypsin, washed with 0.1% BSA/PBS, and fixed in 70% ethanol for 24 hours. The cells were then washed with 0.1% BSA/PBS, treated with RNase A (Sigma), and stained with PI. The stained solution transferred to FACS tubes, and fluorescence intensity and cell cycle were analyzed using a flow cytometer.

[2] = test system: VK2/E6E7 cells; assay: Cell cycle analysis by flow cytometry (PI); settings: VK2/E6E7, 48 hours
Protocol: as §1, §2, §3

[3] = test system: End1/E6E7 cells; assay: Apoptosis by Annexin V and propidium iodide staining
Protocol: (§4) To assess the apoptosis-inducing effect of fraxetin in endometrial cells, the inventors used a FITC Annexin V Apoptosis Detection Kit I (BD Sciences).
(§5) First, VK2/E6E7 and End1/E6E7 cells were cultured in 6-well plates, treated with fraxetin in a dose-dependent manner (0 μM, […], 10 μM, 20 µM, 50 μM, 100 μM), and incubated for 48 hours at 37° C. in a 5% CO2 incubator. The cells were then detached using trypsin, washed with PBS, and mixed slowly with 1 mL of 1X binding buffer. After centrifugation, the cell pellet was resuspended in 200 μL of 1X binding buffer. The suspension (100 μL) was transferred to a 1.5 mL brown tube, and 5 μL of Annexin V and PI (propidium iodide) were added, followed by staining at room temperature for 15 minutes. After adding 400 μL of 1X binding buffer, the stained solution was transferred to a 5 mL FACS tube, and the number of apoptotic cells was measured by analyzing fluorescence intensity using flow cytometry.

[4] = test system: VK2/E6E7 cells; assay: as above
Protocol: as §4, §5

## COc1cc2ccc(=O)oc2c(O)c1O [fraxetin]
[1]
  number of cells in the Sub-G1 phase: increase
[2]
  number of cells in the Sub-G1 phase: increase
[3]; End1/E6E7, Example 6
  early and late apoptosis cell populations: tended to increase
[3]; End1/E6E7, Example 7 comparison fraxetin vs dienogest
  early and late apoptosis: induced both early and late apoptosis
[4]; VK2/E6E7, Example 6
  early and late apoptosis cell populations: tended to increase
[4]; VK2/E6E7, Example 7 comparison fraxetin vs dienogest
  early and late apoptosis: induced both early and late apoptosis
